Columns and labels:
human αvβ3 integrin = human αvβ3 integrin (Homo sapiens, UniProt P05106+P06756); assay: ELISA-like solid-phase integrin binding assay
human α5β1 integrin = human α5β1 integrin (Homo sapiens, UniProt P05556+P08648); assay: ELISA-like solid-phase integrin binding assay
Chain of human α5β1 integrin (P08648 42-995 limits assumed): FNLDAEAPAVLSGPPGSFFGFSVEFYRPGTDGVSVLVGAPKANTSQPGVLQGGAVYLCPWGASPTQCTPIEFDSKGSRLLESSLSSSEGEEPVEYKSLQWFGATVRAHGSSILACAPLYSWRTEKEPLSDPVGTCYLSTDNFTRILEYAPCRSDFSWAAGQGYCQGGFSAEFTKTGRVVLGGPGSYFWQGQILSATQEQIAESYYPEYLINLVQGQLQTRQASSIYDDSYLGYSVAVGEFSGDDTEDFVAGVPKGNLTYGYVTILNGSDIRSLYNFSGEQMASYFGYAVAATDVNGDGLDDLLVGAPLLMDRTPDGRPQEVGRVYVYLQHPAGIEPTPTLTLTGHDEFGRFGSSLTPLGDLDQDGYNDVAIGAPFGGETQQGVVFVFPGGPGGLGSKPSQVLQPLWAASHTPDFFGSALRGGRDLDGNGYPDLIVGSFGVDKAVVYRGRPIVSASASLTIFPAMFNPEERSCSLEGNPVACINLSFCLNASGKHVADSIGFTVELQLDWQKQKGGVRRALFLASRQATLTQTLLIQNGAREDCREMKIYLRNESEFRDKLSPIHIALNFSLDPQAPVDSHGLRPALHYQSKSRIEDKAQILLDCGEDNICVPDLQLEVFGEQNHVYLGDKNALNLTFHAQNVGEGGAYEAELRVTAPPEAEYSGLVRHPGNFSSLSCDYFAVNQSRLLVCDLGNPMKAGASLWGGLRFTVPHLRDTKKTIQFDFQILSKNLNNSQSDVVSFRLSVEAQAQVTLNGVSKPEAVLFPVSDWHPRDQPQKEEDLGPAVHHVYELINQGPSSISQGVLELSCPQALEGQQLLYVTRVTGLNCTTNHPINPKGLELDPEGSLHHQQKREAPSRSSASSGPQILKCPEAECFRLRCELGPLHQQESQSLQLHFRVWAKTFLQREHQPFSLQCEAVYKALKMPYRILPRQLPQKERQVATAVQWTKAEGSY
Chain of human α5β1 integrin (P05556 21-728 limits assumed): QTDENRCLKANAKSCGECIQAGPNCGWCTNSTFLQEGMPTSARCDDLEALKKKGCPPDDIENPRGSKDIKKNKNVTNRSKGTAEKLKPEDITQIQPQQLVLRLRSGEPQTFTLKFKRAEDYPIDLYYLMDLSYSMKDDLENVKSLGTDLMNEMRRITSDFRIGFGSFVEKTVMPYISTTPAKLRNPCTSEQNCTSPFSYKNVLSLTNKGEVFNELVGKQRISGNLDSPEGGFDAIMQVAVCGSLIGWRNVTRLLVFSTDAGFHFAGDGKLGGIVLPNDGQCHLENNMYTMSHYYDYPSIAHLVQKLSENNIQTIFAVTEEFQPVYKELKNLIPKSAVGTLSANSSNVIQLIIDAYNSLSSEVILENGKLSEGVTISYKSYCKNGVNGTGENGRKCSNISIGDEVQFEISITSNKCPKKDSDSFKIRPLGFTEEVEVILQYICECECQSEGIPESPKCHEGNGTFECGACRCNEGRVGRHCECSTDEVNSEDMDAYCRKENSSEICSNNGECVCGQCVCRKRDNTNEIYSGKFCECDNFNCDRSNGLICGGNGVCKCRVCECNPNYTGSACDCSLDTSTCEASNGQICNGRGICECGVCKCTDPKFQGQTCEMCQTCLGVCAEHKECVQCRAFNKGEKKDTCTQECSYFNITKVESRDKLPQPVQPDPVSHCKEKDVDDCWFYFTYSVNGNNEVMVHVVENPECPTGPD

Chain of human αvβ3 integrin (P06756 31-992 limits assumed): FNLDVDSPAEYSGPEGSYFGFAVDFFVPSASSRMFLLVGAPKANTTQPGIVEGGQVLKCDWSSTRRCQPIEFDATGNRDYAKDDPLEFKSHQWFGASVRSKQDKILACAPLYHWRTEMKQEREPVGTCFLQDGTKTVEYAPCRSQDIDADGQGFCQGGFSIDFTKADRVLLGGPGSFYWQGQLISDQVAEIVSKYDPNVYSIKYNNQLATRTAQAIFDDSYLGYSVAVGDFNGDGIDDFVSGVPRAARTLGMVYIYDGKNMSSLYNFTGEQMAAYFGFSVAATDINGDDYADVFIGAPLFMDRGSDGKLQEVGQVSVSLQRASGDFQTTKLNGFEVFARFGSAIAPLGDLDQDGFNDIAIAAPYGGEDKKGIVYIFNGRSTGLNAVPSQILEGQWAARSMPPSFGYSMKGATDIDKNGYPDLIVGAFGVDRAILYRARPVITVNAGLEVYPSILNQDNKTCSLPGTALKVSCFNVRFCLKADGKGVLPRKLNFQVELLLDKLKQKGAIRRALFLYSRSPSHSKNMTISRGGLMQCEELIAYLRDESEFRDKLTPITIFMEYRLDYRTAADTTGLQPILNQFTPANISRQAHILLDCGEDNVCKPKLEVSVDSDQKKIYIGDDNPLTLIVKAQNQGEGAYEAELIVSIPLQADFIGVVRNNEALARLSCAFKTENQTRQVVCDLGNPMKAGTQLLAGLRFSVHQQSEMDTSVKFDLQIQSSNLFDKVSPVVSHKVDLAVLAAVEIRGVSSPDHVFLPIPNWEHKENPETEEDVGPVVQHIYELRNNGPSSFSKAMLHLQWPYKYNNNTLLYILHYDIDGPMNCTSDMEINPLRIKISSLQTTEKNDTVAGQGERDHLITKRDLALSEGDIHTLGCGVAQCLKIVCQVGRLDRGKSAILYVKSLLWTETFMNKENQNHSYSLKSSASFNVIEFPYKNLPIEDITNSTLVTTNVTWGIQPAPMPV
Chain of human αvβ3 integrin (P05106 27-718 limits assumed): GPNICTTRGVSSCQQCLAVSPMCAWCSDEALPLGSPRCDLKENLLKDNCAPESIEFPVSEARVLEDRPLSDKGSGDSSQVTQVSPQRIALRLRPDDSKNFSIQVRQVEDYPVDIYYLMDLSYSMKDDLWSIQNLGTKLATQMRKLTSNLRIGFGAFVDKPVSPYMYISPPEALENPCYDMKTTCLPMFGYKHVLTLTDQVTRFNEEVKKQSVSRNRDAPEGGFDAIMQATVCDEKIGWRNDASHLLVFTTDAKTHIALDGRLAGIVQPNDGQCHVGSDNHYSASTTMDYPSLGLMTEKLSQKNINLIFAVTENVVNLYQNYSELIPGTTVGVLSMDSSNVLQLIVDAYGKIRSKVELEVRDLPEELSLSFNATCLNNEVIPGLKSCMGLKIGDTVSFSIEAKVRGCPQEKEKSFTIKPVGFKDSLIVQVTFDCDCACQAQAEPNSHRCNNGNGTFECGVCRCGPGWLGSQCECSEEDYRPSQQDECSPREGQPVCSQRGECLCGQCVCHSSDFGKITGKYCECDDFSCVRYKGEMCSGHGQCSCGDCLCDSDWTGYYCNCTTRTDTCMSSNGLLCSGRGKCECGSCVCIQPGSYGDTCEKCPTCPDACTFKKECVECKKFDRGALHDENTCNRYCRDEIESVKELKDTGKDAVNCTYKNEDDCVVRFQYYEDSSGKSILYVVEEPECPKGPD

Row | Compound | IC50 (human αvβ3 integrin) | IC50 (human α5β1 integrin) | decrease in the affinities compared to their unmethylated analogues (human αvβ3 integrin; N-methyl tryptophan derivatives vs 12 a–c) | selectivity towards the integrin αVβ3 (over α5β1) (human αvβ3 integrin; ratio of IC50 α5β1 / αVβ3)
1 | N=C(N)NCCC[C@@H]1NC(=O)CCCCCN2c3ccccc3Sc3cc(ccc32)-c2cccc3c(c[nH]c23)C[C@@H](C(N)=O)NC(=O)[C@H](CC(=O)O)NC(=O)CNC1=O [12 a, c(RGDW(7‐3Ptz^2))] | 330 ± 40 nM | – | – | –
2 | N=C(N)NCCC[C@@H]1NC(=O)CCCCCN2c3ccccc3Sc3cc(ccc32)-c2cccc3c(c[nH]c23)C[C@H](C(N)=O)NC(=O)[C@H](CC(=O)O)NC(=O)CNC1=O [12 b, c(RGDw(7‐3Ptz^2))] | 600 ± 110 nM | 5680 ± 1280 nM | – | –
3 | N=C(N)NCCC[C@@H]1NC(=O)CN2c3ccccc3Sc3cc(ccc32)-c2cccc3c(c[nH]c23)C[C@@H](C(N)=O)NC(=O)[C@H](CC(=O)O)NC(=O)CNC1=O [12 c, c(RGDW(7‐3Ptz^1))] | 310 ± 80 nM | 2220 ± 1040 nM | – | –
4 | N=C(N)NCCC[C@@H]1NC(=O)CN2c3ccccc3Sc3cc(ccc32)-c2cccc3c(c[nH]c23)C[C@H](C(N)=O)NC(=O)[C@H](CC(=O)O)NC(=O)CNC1=O [12 d, c(RGDw(7‐3Ptz^1))] | 780 ± 170 nM | > 10000 nM | – | –
5 | CN1C(=O)[C@H](CC(=O)O)NC(=O)CNC(=O)[C@H](CCCNC(=N)N)NC(=O)CCCCCN2c3ccccc3Sc3cc(ccc32)-c2cccc3c(c[nH]c23)C[C@H]1C(N)=O [12 e, c(RGD(NMe)W(7‐3Ptz^2))] | 6550 ± 760 nM | – | 15–20 fold | –
6 | CN1C(=O)[C@H](CC(=O)O)NC(=O)CNC(=O)[C@H](CCCNC(=N)N)NC(=O)CN2c3ccccc3Sc3cc(ccc32)-c2cccc3c(c[nH]c23)C[C@H]1C(N)=O [12 f, c(RGD(NMe)W(7‐3Ptz^1))] | 4520 ± 530 nM | > 10000 nM | – | –
7 | N#CC(C#N)=Cc1ccc2c(c1)Sc1cc3ccc1N2CCCCCC(=O)N[C@@H](CCCNC(=N)N)C(=O)NCC(=O)N[C@@H](CC(=O)O)C(=O)N[C@@H](C(N)=O)Cc1c[nH]c2c-3cccc12 [12 g, c(RGDw(7‐3Ptz^2(CH(CN)2))] | 961 ± 50 nM | > 10000 nM | – | –
8 | c(RGDW(7‐3Ptz^1(O))) [12 h] | – | – | – | ≈ 110 fold

From paper PMC7540173 (Chemistry (Weinheim an Der Bergstrasse, Germany), 2020)
